# Legend:
# Assay type in all cases: cell-based, human
# MDA cells [1] = assay: MDA cells incubated with agent alone (live cell counting, MTT, Annexin V/7AAD)
# Method: (§1) hMSCs were plated at 10^5 cells in CCM in 6-well plates and incubated for 4 hrs. For pre-activation, hMSCs were incubated at 37° C. for 24 hrs in 2% CM containing 10 ng/mL TNF-α. For co-culture, an equal number of MDA cells in 2% CM with or without TNF-α (10 ng/mL) were added to hMSC containing wells. For transwell cultures, hMSCs were plated at 10^5 cells in the upper compartment (Transwell, 0.4 μm pore size; Corning; Corning, N.Y.), while an equal number of MDA cells was plated in the lower compartment in 2% CM with or without TNF-α (10 ng/mL). After 24 hrs, supernatants and cells were collected. For some experiments, MDA cells were treated with 1 to 100 ng/mL doxorubicin (Sigma-Aldrich) in 2% CM for 24 his at 37° C., prior to co-culture with hMSCs. In other experiments, hMSCs were treated with either apoptotic MDA cells or 1 μg/mL Polyinosinic-Polycytidylic acid [Poly(I:C); Sigma-Aldrich; St. Louis, Mo.] with or without TNF-α (10 ng/ml) for 24 hrs in 2% CM.
# (§2) hMSCs and MDA cells from co-culture experiments were suspended in PBS and incubated with CD90-PE (Clone Thy1/310; Beckman Coulter) for 45 minutes on ice, washed with PBS by centrifugation, incubated at RT for 20 minutes with 300 ng/mL annexin V (AnnexinV-FITC Apoptosis Detection Kit; Sigma-Aldrich) and 4 μg/mL 7-aminoactinomycin D (7AAD; Sigma-Aldrich.), and analyzed by flow cytometry (Cytomics FC500; Beckman Coulter).
# TRAIL = TRAIL expression in hMSCs (real-time RT-PCR, Western, ELISA, IF)
# Method: (§3) Approximately 200 ng of total RNA extracted from cultured cells was used to synthesize double-stranded complementary DNA (cDNA) by reverse transcription (SuperScript III; Invitrogen). cDNA was analyzed by real-time PCR using TaqMan Universal PCR Master Mix (Applied Biosystems). For the assays, reactions were incubated at 50° C. for 2 minutes and at 95° C. for 10 minutes followed by 40 cycles at 95° C. for 15 seconds and 60° C. for 1 minute. For relative quantitation of gene expression, human-specific GAPDH primers and probe (Taq-Man Gene Expression Assays ID, Hs00266705_g1) were used. The other PCR primers and probes were human DKK3 (Hs00247426_m1), human TRAIL (TNFSF10: Hs00921974_m1) and human TLR3 (Hs01551078_m1) all purchased from the same source (Applied Biosystems).
# (§4) Cultured cells were sorted using FACS after CD90-PE staining. Sorted samples were lysed (Cell Extraction Buffer; Invitrogen) and sonicated for 15-20 seconds (Ultrasonic Processor, 130W; Cole-Parmer; Vernon Hills, Ill.). […] The samples were heated at 97° C. for 5 minutes. Denatured protein samples were separated by electrophoresis on polyacrylamide gels (NuPAGE® Bis-Tris Gels; Invitrogen) and proteins transferred to Invitrolon™ PVDF membrane (Pore size—0.45 μm; Invitrogen) using Novex® NuPAGE® SDS-PAGE Gel System (Invitrogen). Membranes were then blocked for 1 hour at room temperature (RT) using blocking buffer that contained 5% non-fat dry milk (Cell Signaling Technologies, Inc.) in Tris-buffered saline with 0.1% Tween-20 (TBST). After blocking, membranes were incubated overnight at 4° C. with primary antibodies that were diluted in 5% BSA in TBST. The membranes were washed with TBST three times for 5 minutes each, and incubated with secondary antibodies, which were diluted in blocking buffer, for 1 hour at RT. After secondary antibody incubation, the membranes were washed with TBST three times and developed using West-Q Chemiluminescent Substrate Kit (Gendepot, Inc.; Barker, Tex.) for 1 minute. Images were taken using Molecular Imager VersaDoc™ MP 4000 (Bio-rad Laboratories). The membranes were washed with TBST three times and stripped using Restore™ Western Blot Stripping buffer (Thermo Fisher Scientific, Inc.) for 15 minutes at 37° C., followed by three more washes with TBST. The membranes were blocked for 1 hour using blocking buffer and incubated with β-actin primary antibody conjugated with HRP (1:10,000) diluted in blocking buffer followed by imaging as described above. […]
# Conditioned media from cultured MDA and hMSCs were collected after 24 hour incubation. For the DKK-3 assay, culture media were filtered (Spin-X® Centrifuge Tube Filter, 0.22 μm; Corning, Inc) and the protein level was detected by ELISA (Human Dkk-3 DuoSet; R&D Systems). […]
# MDA cells [2] = assay: Co-culture of hMSCs and MDA cells (Annexin V/7AAD apoptosis, live cell counting)
# Method: as §1, §2
# hMSCs (5×10^4 cells/well in 6 well plate) were treated with either TLR3 antibody (5 μg/mL; eBioscience, Inc; San Diego, Calif.), TRAIL antibody (25 μg/mL; BD Biosciences, Inc; San Jose, Calif.), or normal mouse IgG (5 or 25 μg/mL; PeproTech, Inc; Rocky Hill, N.J.) for 30 minutes at 37° C. in 2% CM with or without TNF-α (10 ng/mL) prior to co-culture with an equal number of MDA cells for 24 hrs.
# DKK3 = DKK3 expression in hMSCs (ELISA); conditions: 10 ng/mL TNF-α
# Method: Conditioned media from cultured MDA and hMSCs were collected after 24 hour incubation. For the DKK-3 assay, culture media were filtered (Spin-X® Centrifuge Tube Filter, 0.22 μm; Corning, Inc) and the protein level was detected by ELISA (Human Dkk-3 DuoSet; R&D Systems). For detection of TRAIL, the filtered medium was concentrated to 4 times (Vivaspin 6 (5 kDa MWCO; GE Healthcare; UK) and assayed by ELISA (Human TRAIL Quantikine ELISA kit; R&D Systems).
# TLR3 = TLR3 expression in hMSCs (real-time RT-PCR); conditions: incubation with TNF-α
# Method: as §3
# hMSCs and MDA cell were separated by cell sorting (FACS, MoFlo™ XDP; Beckman Coulter; Brea, Calif.) after labeling with CD90-PE for 45 minutes on ice. RNA was extracted using RNeasy Mini Kit (QIAGEN). See Supplemental Information for real time RT-PCR analysis.
# [3] = tested on: cyclin D1, cyclin D3 and p21; assay: Cyclin D1, cyclin D3 and p21 in MDA cells (Western blot, IF staining); conditions: TNF-α alone
# Method: as §4, with “Laboratories).” for “Laboratories). The membranes were washed with TBST three times and stripped using Restore™ Western Blot Stripping buffer (Thermo Fisher Scientific, Inc.) for 15 minutes at 37° C., followed by three more washes with TBST. The membranes were blocked for 1 hour using blocking buffer and incubated with β-actin primary antibody conjugated with HRP (1:10,000) diluted in blocking buffer followed by imaging as described above.”
# β-catenin = β-catenin in MDA cells (IF staining); conditions: 24 hr incubation with rhDKK3
# Method: For immunofluorescence staining, hMSCs were cultured in CCM overnight in 150 mm diameter plates and replated at 10,000 cells/cm^2 in chambered slides (Lab Tek II Chamber Slide™ System; Nunc Thermo Scientific, Rochester, N.Y.). […] After co-culture, the cells were washed with PBS twice and fixed with either methanol for anti-TRAIL antibody or 4% PFA for all other antibodies. The slides were further processed for immuno-staining as described above. The antibodies used for immunochemistry were anti-human nuclei mouse monoclonal antibody (Millipore, Billerica, Mass.) anti-GFP-Alexa Fluor® rat monoclonal antibody (RQ2; MBL Co. Ltd, Woburn, Mass.), anti-human TRAIL rabbit polyclonal antibodies (C92B9; Cell Signaling) anti-human cyclin D1 mouse monoclonal antibody (DCS6; Cell Signaling), anti-human p21 mouse monoclonal antibody (DCS60; Cell Signaling) and anti-human β-catenin mouse monoclonal antibodies (BD Bioscience, Sparks, Md.). Alexa Fluor® antibodies (Invitrogen) were used for secondary antibodies.
# U87 = assay: Live cell number / cell death of U87 cells; conditions: 100 ng/ml rhTRAIL, 24 hour; compared with MDA cells
molecule,measurement,setting,value
COc1cccc2c1C(=O)c1c(O)c3c(c(O)c1C2=O)C[C@@](O)(C(=O)CO)C[C@@H]3O[C@H]1C[C@H](N)[C@H](O)[C@H](C)O1 [doxorubicin],apoptosis of MDA cells,MDA cells [1]; 100 ng/mL (0.2 μM),did not induce apoptosis
same,proliferation of MDA (recovery of live cells),"MDA cells [1]; 100 ng/mL (0.2 μM), 24 hrs",suppressed proliferation of MDA
same,number of live MDA cells recovered from cultures,"MDA cells [1]; after 24 hrs, 1 to 100 ng/mL, dose dependent",decreased the number of live MDA cells
DNase,increase of TRAIL in hMSCs by apoptotic MDA cells pre-treated with enzyme,TRAIL; 24 hr incubation,inhibited the increase of TRAIL in hMSCs
IFN-γ: pro-inflammatory agent,up-regulation of TRAIL in hMSCs,"TRAIL; 24 hour incubation of hMSCs with the agent, real time RT-PCR",30 fold
Polyinosinic-Polycytidylic acid [poly(I:C)],expression of TRAIL in hMSCs,"TRAIL; 1 μg/mL Poly(I:C), 24 hrs",increased expression of TRAIL in hMSCs
same,MDA apoptosis when agent added to co-cultures,"MDA cells [2]; poly(I:C)/TNF-α pre-activated hMSCs, 24 hr",small but statistically significant increase in MDA apoptosis
TNF-α,expression of DKK3 protein in hMSCs,DKK3,up-regulated
same,expression of TRAIL protein in hMSCs,TRAIL; 10 ng/mL TNF-α,up-regulated
same,concentration adequate to activate hMSCs to induce MDA apoptosis,MDA cells [2]; co-culture,0.1 ng/mL
same,activation of hMSCs to induce apoptosis of MDA cells in co-culture,MDA cells [2]; over the range of 0.1 to 10 ng/mL,concentration dependent
same,expression of TLR3 in hMSCs,TLR3,increased by incubation with TNF-α
same,"expression of cyclin D1, D3 and p21 in MDA cells",[3],had no significant effect
rhDKK-3: recombinant human DKK3 (R&D Systems),number of β-catenin expressing MDA,β-catenin,decreased the number of β-catenin expressing MDA
same,"proliferation of MDA cells (MTT, live cell number)",MDA cells [1]; 24 hr incubation with rhDKK3,decreased
same,viability of MDA cells (Annexin V & 7AAD),"MDA cells [1]; rhDKK3 5 ng/mL, 24 hr",without affecting the viability of MDA cells
"rhTRAIL: recombinant human TRAIL (R&D Systems) (protein, UniProt P50591 39-281, looked up, extracellular domain) extracellular domain: TNELKQMQDKYSKSGIACFLKEDDSYWDPNDEESMNSPCWQVKWQLRQLVRKMILRTSEETISTVQEKQQNISPLVRERGPQRVAAHITGTRGRSNTLSSPNSKNEKALGRKINSWESSRSGHSFLSNLHLRNGELVIHEKGFYYIYSQTYFRFQEEIKENTKNDKQMVQYIYKYTSYPDPILLMKSARNSCWSKDAEYGLYSIYQGGIFELKENDRIFVSVTNEHLIDMDHEASFFGAFLVG",sensitivity of U87 cells (cell death),U87,less sensitive to rhTRAIL than MDA cells

# Reference: patent US20150272992A1, “Treatment of Tumors with Activated Mesenchymal Stem Cells” (THE TEXAS A&M UNIVERSITY SYSTEM, priority 2012, published 2015)
